# Patent US7989469B2, “Certain chemical entities, compositions, and methods” (Cytokinetics, Incorporated, priority 2008, dated 2011)
# Test system: rabbit skeletal muscle myofibril preparations (approximately 90% fast fibers)
# Assay: Activation of fast skeletal muscle fibers: enzymatic activity of myofibril preparations (PUMA assay system)
# Format: biochemical
# Parameters: unit not given here
# Settings: detergent treated myofibrils at pCa25%, 500 μM ATP; cells marked †: Mean value
# Text: Fast fiber activators were identified by measuring the enzymatic activity of muscle myofibril preparations using the proprietary PUMA™ (see, e.g., U.S. Pat. Nos. 6,410,254, 6,743,599, 7,202,051, and 7,378,254) assay system. Myofibril preparations consisted of rabbit skeletal muscle (approximately 90% fast fibers) that had been treated with a detergen (triton X-100) to remove cellular membranes and then homogenized. This preparation retained all of the sarcomeric components in a native conformation and the enzymatic activity was still regulated by calcium. Compounds were tested using a myofibril suspension and a level of calcium sufficient to increase enzymatic activity of the myofibrils to 25% of their maximal rate (termed pCa25%). Enzymatic activity was tracked via a kinetic assay with a UV absorption readout. Hits were identified as compounds that increased the rate of enzymatic activity by greater than 40% at 40 μM. Myofibril preparations are calcium regulated and were screened at a level of calcium sufficient to produce a 25% increase in enzymatic rate. Detergent treated myofibrils were incubated with 500 μM ATP and 40 μM compound and a kinetic read of UV absorbance performed. Data was normalized to control wells.
row,Compound,AC1.4 Median
1,"6-chloro-1-(ethylpropyl)-7-(5-fluoro(2-pyridyl))imidazo[4,5-b]pyridin-2-ol",0.268†
2,"CCC(CC)n1c(O)nc2ncc(Cl)c(-c3ccsc3)c21 [6-chloro-1-(ethylpropyl)-7-(3-thienyl)imidazo[4,5-b]pyridin-2-ol]",0.124†
3,"CC[C@H](COC(C)=O)c1nc2nc(O)[nH]c2c(-c2ccc(F)cc2)c1Cl [(2S)-2-[6-chloro-7-(4-fluorophenyl)-2-hydroxyimidazo[4,5-b]pyridinyl]butyl acetate]",0.234†
4,"6-chloro-7-(3-chlorophenyl)-1-(ethylpropyl)imidazo[4,5-b]pyridin-2-ol",0.330†
5,"CC(C)n1c(O)nc2ncc(Cl)c(-c3ccc(F)cc3)c21 [6-chloro-7-(4-fluorophenyl)-1-(methylethyl)imidazo[4,5-b]pyridin-2-ol]",0.096†
6,"6-chloro-1-(ethylpropyl)-7-(4-methylphenyl)imidazo[4,5-b]pyridin-2-ol",0.336†
7,"6-chloro-7-(5-chloro(2-pyridyl))-1-(ethylpropyl)imidazo[4,5-b]pyridin-2-ol",0.320†
8,"CCC(CC)n1c(O)nc2ncc(Cl)c(-c3ccc(C#N)c(F)c3)c21 [4-(6-chloro-2-hydroxy-1-(pentan-3-yl)-1H-imidazo[4,5-b]pyridin-7-yl)-2-fluorobenzonitrile]",0.458†
9,"6-chloro-1-(ethylpropyl)-7-(4-fluorophenyl)imidazo[4,5-b]pyridin-2-ol",0.074†
10,"6-chloro-1-(ethylpropyl)-7-[4-(trifluoromethyl)phenyl]imidazo[4,5-b]pyridin-2-ol",0.274†
11,"6-chloro-7-(5-chloro(2-thienyl))-1-(ethylpropyl)imidazo[4,5-b]pyridin-2-ol",0.084†

# Same assay, conditions: detergent treated myofibrils at pCa25%, 500 μM ATP; median value (no †)
row,Compound,AC1.4 Median
1,"Cn1c(O)nc2ncc(Cl)c(-c3ccc(F)cc3)c21 [6-chloro-7-(4-fluorophenyl)-1-methylimidazo[4,5-b]pyridin-2-ol]",12.620
2,"6-chloro-1-(ethylpropyl)-7-(4-methoxyphenyl)imidazo[4,5-b]pyridin-2-ol",0.728
3,"CC[C@@H](CO)n1c(O)nc2ncc(F)c(-c3ccc(Cl)cc3)c21 [1-((1S)-1-ethyl-2-hydroxyethyl)-7-(4-chlorophenyl)-6-fluoroimidazo[4,5-b]pyridin-2-ol]",2.643
4,"6-chloro-1-(ethylpropyl)-7-(1-methylpyrazol-4-yl)imidazo[4,5-b]pyridin-2-ol",17.805
5,"CCC(C)n1c(O)nc2ncc(Cl)c(-n3cccn3)c21 (centres unmarked) [6-chloro-1-(methylpropyl)-7-pyrazolylimidazo[4,5-b]pyridin-2-ol]",1.3927
6,"C[C@@H](CO)n1c(O)nc2ncc(Cl)c(-c3ccc(Cl)cc3)c21 [1-((1S)-2-hydroxy-isopropyl)-6-chloro-7-(4-chlorophenyl)imidazo[4,5-b]pyridin-2-ol]",1.260
7,"CCC(CC)n1c(O)nc2ncc(Cl)c(-c3ccccc3C(=O)O)c21 [2-[6-chloro-1-(ethylpropyl)-2-hydroxyimidazo[4,5-b]pyridin-7-yl]benzoic acid]",30.881
8,"6-chloro-1-(ethylpropyl)-7-(3-methylphenyl)imidazo[4,5-b]pyridin-2-ol",0.482
9,"CC[C@H](CNC(C)=O)c1nc2nc(O)[nH]c2c(-c2ccc(F)cc2)c1Cl [N-{(2R)-2-[6-chloro-7-(4-fluorophenyl)-2-hydroxyimidazo[4,5-b]pyridinyl]butyl}acetamide]",15.6039
10,"6-chloro-7-(2-chloro-4-methylphenyl)-1-(ethylpropyl)imidazo[4,5-b]pyridin-2-ol",0.587
11,"CC[C@@H](n1c(O)nc2ncc(Cl)c(-c3ccc(F)cn3)c21)C(C)(C)O [1-((1R)-1-ethyl-2-hydroxy-2-methylpropyl)-6-chloro-7-(5-fluoro(2-pyridyl))imidazo[4,5-b]pyridin-2-ol]",8.386
12,"CC[C@@H](COC)n1c(O)nc2ncc(Cl)c(-c3ccc(F)cc3)c21 [1-[(1S)-1-(methoxymethyl)propyl]-6-chloro-7-(4-fluorophenyl)imidazo[4,5-b]pyridin-2-ol]",0.317
13,"CC[C@@H](CO)n1c(O)nc2ncc(Cl)c(-c3ccc(C)cc3)c21 [1-((1S)-1-ethyl-2-hydroxyethyl)-6-chloro-7-(4-methylphenyl)imidazo[4,5-b]pyridin-2-ol]",2.194
14,"CC[C@H](C)n1c(O)nc2ncc(Cl)c(-n3cccn3)c21 [1-((1S)-1-methylpropyl)-6-chloro-7-pyrazolylimidazo[4,5-b]pyridin-2-ol]",1.0174
15,"CC[C@H](CC(C)(C)O)n1c(O)nc2ncc(Cl)c(-c3ccc(F)cc3)c21 [1-((1R)-1-ethyl-3-hydroxy-3-methylbutyl)-6-chloro-7-(4-fluorophenyl)imidazo[4,5-b]pyridin-2-ol]",2.9192
16,"{4-[6-chloro-1-(ethylpropyl)-2-hydroxyimidazo[4,5-b]pyridin-7-yl]phenyl}(methylsulfonyl)amine",26.368
17,"CC[C@H](CO)n1c(O)nc2ncc(Cl)c(-c3ccc(F)cn3)c21 [1-((1R)-1-ethyl-2-hydroxyethyl)-6-chloro-7-(5-fluoro(2-pyridyl))imidazo[4,5-b]pyridin-2-ol]",7.658
18,"CC[C@@H](CO)n1c(O)nc2ncc(Cl)c(-n3cccn3)c21 [1-((1S)-1-ethyl-2-hydroxyethyl)-6-chloro-7-pyrazolylimidazo[4,5-b]pyridin-2-ol]",7.2481
19,"CCC(COP(=O)(O)O)c1nc2nc(O)[nH]c2c(-c2ccc(F)c(F)c2)c1Cl (centres unmarked) [2-[7-(3,4-difluorophenyl)-6-chloro-2-hydroxyimidazo[4,5-b]pyridinyl]butyl dihydrogen phosphate]",44.713
20,"CC[C@@H](CO)n1c(O)nc2ncc(Cl)c(-c3cccs3)c21 [1-((1S)-1-ethyl-2-hydroxyethyl)-6-chloro-7-(2-thienyl)imidazo[4,5-b]pyridin-2-ol]",1.349

row,Compound,AC1.4 Median
1,"{3-[6-chloro-1-(ethylpropyl)-2-hydroxyimidazo[4,5-b]pyridin-7-yl]phenyl}-N,N-dimethylcarboxamide",21.245
2,"6-chloro-1-(ethylpropyl)-7-[3-(methoxymethyl)phenyl]imidazo[4,5-b]pyridin-2-ol",8.109
3,"C[C@H](CO)n1c(O)nc2ncc(Cl)c(-c3ccc(F)cc3)c21 [1-((1R)-2-hydroxy-isopropyl)-6-chloro-7-(4-fluorophenyl)imidazo[4,5-b]pyridin-2-ol]",11.044
4,"CC[C@@H](CO)n1c(O)nc2ncc(Cl)c(-c3ccc(OC)cc3)c21 [1-((1S)-1-ethyl-2-hydroxyethyl)-6-chloro-7-(4-methoxyphenyl)imidazo[4,5-b]pyridin-2-ol]",5.251
5,"CC[C@@H](CN)n1c(O)nc2ncc(Cl)c(-c3ccc(F)cc3)c21 [1-((1S)-2-amino-1-ethylethyl)-6-chloro-7-(4-fluorophenyl)imidazo[4,5-b]pyridin-2-ol]",24.3174
6,"6-chloro-7-(5-fluoro(2-pyridyl))-1-(methylethyl)imidazo[4,5-b]pyridin-2-ol",2.323
7,"6-chloro-1-(ethylpropyl)-7-(3-fluoro(4-pyridyl))imidazo[4,5-b]pyridin-2-ol",1.709
8,"CC[C@H](COC)n1c(O)nc2ncc(Cl)c(-c3ccc(F)cc3)c21 [1-[(1R)-1-(methoxymethyl)propyl]-6-chloro-7-(4-fluorophenyl)imidazo[4,5-b]pyridin-2-ol]",0.249
9,"6-chloro-1-(ethylpropyl)-7-(3-hydroxyphenyl)imidazo[4,5-b]pyridin-2-ol",3.021
10,"6-chloro-1-(ethylpropyl)-7-(5-methyl(2-pyridyl))imidazo[4,5-b]pyridin-2-ol",5.708
11,"7-(1H-indazol-6-yl)-6-chloro-1-(ethylpropyl)imidazo[4,5-b]pyridin-2-ol",4.216
12,"(tert-butoxy)-N-{4-[6-chloro-1-(ethylpropyl)-2-hydroxyimidazo[4,5-b]pyridin-7-yl]phenyl}-N-methylcarboxamide",42.343
13,"6-chloro-1-(ethylpropyl)-7-pyrazolylimidazo[4,5-b]pyridin-2-ol",0.3235
14,"6-chloro-1-(ethylpropyl)-7-(1-methyl(1H-indazol-5-yl))imidazo[4,5-b]pyridin-2-ol",5.365
15,"6-chloro-1-(ethylpropyl)-7-(2-methyl(1,2,3,4-tetraazol-5-yl))imidazo[4,5-b]pyridin-2-ol",6.404
16,"CC[C@@H](CC(C)(C)O)n1c(O)nc2ncc(Cl)c(-c3ccc(F)cc3)c21 [1-((1S)-1-ethyl-3-hydroxy-3-methylbutyl)-6-chloro-7-(4-fluorophenyl)imidazo[4,5-b]pyridin-2-ol]",1.0092
17,"Oc1nc2ncc(Cl)c(-c3ccc(F)cc3)c2n1C1CCCC1 [6-chloro-1-cyclopentyl-7-(4-fluorophenyl)imidazo[4,5-b]pyridin-2-ol]",1.677
18,"CC[C@@H](CO)n1c(O)nc2ncc(Cl)c(-c3ccsc3)c21 [1-((1S)-1-ethyl-2-hydroxyethyl)-6-chloro-7-(3-thienyl)imidazo[4,5-b]pyridin-2-ol]",0.827
19,"N-{4-[6-chloro-1-(ethylpropyl)-2-hydroxyimidazo[4,5-b]pyridin-7-yl]phenyl}acetamide",28.930
